Test system: blood glucose
Test: Postprandial blood glucose pharmacodynamics after meal bolus, 3-day ID vs SC infusion
Format: in vivo, human (T1DM patients)
Conditions: ID; for BGavg0–1 / BGmax0–1 / ΔAUC-BG0–1 / ΔBGmax0–1 / BGavg0–1.5 / BGmax0–1.5 / ΔAUC-BG0–1.5 / ΔBGmax0–1.5 / BGavg0–2 / BGmax0–2 / ΔAUC-BG0–2 / ΔBGmax0–2 / BGavg0–4 / BGmax0–4 / ΔAUC-BG0–4 / ΔBGmax0–4 / BG1 / ΔBG1 / BG1.5 / ΔBG1.5 / BG2 / ΔBG2 / BG4 / ΔBG4: mean ± SD; for BG1 / ΔBG1: at 1 h; for BG1.5 / ΔBG1.5: at 1.5 h; for BG2 / ΔBG2: at 2 h; for BG4 / ΔBG4: at 4 h
Excerpt: This was a single center, open-label, two-period crossover study, randomized by infusion order, in T1DM patients on continuous subcutaneous insulin infusion (CSII). The protocol was approved by an independent ethics committee (Ethikkommission der Ärztekammer Nordrhein, Düsseldorf, Germany), appropriate regulatory bodies (German Federal Institute for Drugs and Medical Devices (BfArM)), and conducted in compliance with good clinical practice (GCP), the Declaration of Helsinki, and applicable regulatory requirements.
The study was completed over a multi-week period consisting of three study visits: a screening visit (V1) and two interventional visits (V2 and V3). After establishing eligibility and enrollment, patients received treatment during two interventional visits: one SC and one ID basal/bolus infusion of insulin aspart (NovoRapid® U-100, Novo Nordisk, Copenhagen, Denmark) administered over 3 days in a randomized order.
Individual meal bolus doses were determined based on patient self-reported insulin to carbohydrate ratios and insulin sensitivity, historical self-reported insulin usage for meal coverage, and clinician review and adjustment of insulin usage during the in-clinic BG stabilization period the evening prior to the first morning meal. Basal insulin infusion rates were initiated based on the patient’s known daily delivery profile and could be adjusted by the clinician to maintain levels within 70–160 mg/dL according to a predetermined sliding scale and hourly changes in glycemia. A continuous glucose monitor (Seven Plus®, DexCom Inc., San Diego, CA) calibrated per manufacturer’s recommendations was applied to continuously monitor glycemia as a safety measure, in addition to periodic blood sampling for BG determination.
After maintaining targeted blood glucose range during the preceding night, bolus insulin doses were administered via the respective infusion catheter prior to standardized breakfast and lunch test meals on each of the three treatment days. Each meal insulin bolus was calculated based on the patient’s insulin sensitivity and previous hours change in BG per sliding scale then delivered immediately prior to breakfast (t = 0 min) and lunch (t = 360 min) consumption. Breakfast was a high glycemic index (60 g carbohydrates) solid meal, and lunch was a mixed meal based on the individual’s calculated daily energy intake and equivalent in caloric composition by day. Breakfast and lunch meals were consumed within 15 min followed by serial blood sampling with BG monitoring for a period of 6 and 4 h, respectively. Patients were asked to remain sedentary for 2 h after meals. Identical study procedures were utilized for the remaining dosing visit days (Fig. 2).
To assess insulin absorption kinetics and glycemic response, blood samples for measurements of insulin aspart and blood glucose in serum were drawn at predefined time points throughout dosing visits. Serial samples for safety BG determination, but not PK analysis, were obtained at a minimum every 2 h. Meal PK/PD analysis samples were acquired immediately pre-bolus and for 4–6 h post-bolus for breakfast and lunch meals, with a higher frequency during the first 2 h to capture insulin and BG peak levels {Post-bolus breakfast time points (min): 0, 10, 15, 20, 25, 30, 35, 40, 45, 50, 55, 60, 65, 70, 80, 90, 120, 150, 180, 210, 240, 300, 330, 360; Post-bolus lunch time points (min): 0, 10, 20, 30, 40, 50, 60, 70, 80, 90, 120, 180, 240, 300}. Sampling times were based on previous clinical study experience for bolus microneedle insulin delivery and had increased sampling frequency in the first 90 min post-delivery to capture the rapid insulin peaks from microneedle ID delivery. Blood samples for evening meal and basal period PK assessment could not be obtained due to daily blood draw volume limits for patient safety. Serum insulin aspart was measured by a third party laboratory (IKFE GmbH, Mainz, Germany) using a validated insulin assay (Invitron ELISA kit). […]

[1] = 0–1 h, Days 1–3 combined, all test meals, n = 150–156
[2] = 0–1 h, across all study days and meals
[3] = 0–1.5 h, Days 1–3 combined, all test meals, n = 150–156
[4] = 0–1.5 h, across all study days and meals
[5] = 0–2 h, Days 1–3 combined, all test meals, n = 150–156
[6] = 0–2 h, across all study days and meals
[7] = 0–4 h, Days 1–3 combined, all test meals, n = 150–156
[8] = Days 1–3 combined, all test meals, n = 150–156

Substance: insulin aspart
- BGavg0–1 (0–1 h, Day 1, across meals): 135 ± 45.9 mg/dL
- BGmax0–1 (0–1 h, Day 1, across meals): 159 ± 53.1 mg/dL
- ΔAUC-BG0–1 (0–1 h, Day 1, across meals): 17.2 ± 22.3 mg·h/dL
- ΔBGmax0–1 (0–1 h, Day 1, across meals): 41.3 ± 32.1 mg/dL
- BGavg0–1 (0–1 h, Day 2, across meals): 138 ± 37.4 mg/dL
- BGmax0–1 (0–1 h, Day 2, across meals): 162 ± 43.0 mg/dL
- ΔAUC-BG0–1 (0–1 h, Day 2, across meals): 18.7 ± 22.0 mg·h/dL
- ΔBGmax0–1 (0–1 h, Day 2, across meals): 43.1 ± 30.2 mg/dL
- BGavg0–1 (0–1 h, Day 3, across meals): 136 ± 37.3 mg/dL
- BGmax0–1 (0–1 h, Day 3, across meals): 162 ± 41.5 mg/dL
- ΔAUC-BG0–1 (0–1 h, Day 3, across meals): 18.5 ± 19.2 mg·h/dL
- ΔBGmax0–1 (0–1 h, Day 3, across meals): 44.2 ± 28.1 mg/dL
- BGavg0–1 [1]: 136 ± 40.5 mg/dL
- BGmax0–1 [1]: 161 ± 46.2 mg/dL
- ΔAUC-BG0–1 [1]: 18.1 ± 21.2 mg·h/dL
- ΔBGmax0–1 [1]: 42.8 ± 30.1 mg/dL
- Intra-subject variability of BGavg [2]: 26.3 %CV
- Intra-subject variability of BGmax [2]: 25.2 %CV
- BGavg0–1.5 (0–1.5 h, Day 1, across meals): 137 ± 42.1 mg/dL
- BGmax0–1.5 (0–1.5 h, Day 1, across meals): 160 ± 46.8 mg/dL
- ΔAUC-BG0–1.5 (0–1.5 h, Day 1, across meals): 32.4 ± 41.7 mg·h/dL
- ΔBGmax0–1.5 (0–1.5 h, Day 1, across meals): 45.0 ± 34.5 mg/dL
- BGavg0–1.5 (0–1.5 h, Day 2, across meals): 144 ± 39.9 mg/dL
- BGmax0–1.5 (0–1.5 h, Day 2, across meals): 169 ± 45.6 mg/dL
- ΔAUC-BG0–1.5 (0–1.5 h, Day 2, across meals): 36.8 ± 40.8 mg·h/dL
- ΔBGmax0–1.5 (0–1.5 h, Day 2, across meals): 49.5 ± 33.5 mg/dL
- BGavg0–1.5 (0–1.5 h, Day 3, across meals): 143 ± 40.2 mg/dL
- BGmax0–1.5 (0–1.5 h, Day 3, across meals): 172 ± 45.0 mg/dL
- ΔAUC-BG0–1.5 (0–1.5 h, Day 3, across meals): 39.3 ± 36.8 mg·h/dL
- ΔBGmax0–1.5 (0–1.5 h, Day 3, across meals): 54.8 ± 34.2 mg/dL
- BGavg0–1.5 [3]: 141 ± 40.6 mg/dL
- BGmax0–1.5 [3]: 167 ± 45.8 mg/dL
- ΔAUC-BG0–1.5 [3]: 36.0 ± 39.8 mg·h/dL
- ΔBGmax0–1.5 [3]: 49.5 ± 34.1 mg/dL
- Intra-subject variability of BGavg [4]: 25.6 %CV
- Intra-subject variability of BGmax [4]: 24.5 %CV
- BGavg0–2 (0–2 h, Day 1, across meals): 139 ± 43.8 mg/dL
- BGmax0–2 (0–2 h, Day 1, across meals): 165 ± 47.8 mg/dL
- ΔAUC-BG0–2 (0–2 h, Day 1, across meals): 47.8 ± 63.1 mg·h/dL
- ΔBGmax0–2 (0–2 h, Day 1, across meals): 49.4 ± 36.7 mg/dL
- BGavg0–2 (0–2 h, Day 2, across meals): 146 ± 41.9 mg/dL
- BGmax0–2 (0–2 h, Day 2, across meals): 171 ± 46.5 mg/dL
- ΔAUC-BG0–2 (0–2 h, Day 2, across meals): 53.9 ± 61.9 mg·h/dL
- ΔBGmax0–2 (0–2 h, Day 2, across meals): 52.2 ± 33.7 mg/dL
- BGavg0–2 (0–2 h, Day 3, across meals): 148 ± 41.8 mg/dL
- BGmax0–2 (0–2 h, Day 3, across meals): 176 ± 44.9 mg/dL
- ΔAUC-BG0–2 (0–2 h, Day 3, across meals): 62.8 ± 56.3 mg·h/dL
- ΔBGmax0–2 (0–2 h, Day 3, across meals): 59.5 ± 34.9 mg/dL
- BGavg0–2 [5]: 144 ± 42.4 mg/dL
- BGmax0–2 [5]: 170 ± 46.4 mg/dL
- ΔAUC-BG0–2 [5]: 54.5 ± 60.6 mg·h/dL
- ΔBGmax0–2 [5]: 53.5 ± 35.2 mg/dL
- Intra-subject variability of BGavg [6]: 25.9 %CV
- Intra-subject variability of BGmax [6]: 23.8 %CV
- BGavg0–4 (0–4 h, Day 1, across meals): 141 ± 44.0 mg/dL
- BGmax0–4 (0–4 h, Day 1, across meals): 178 ± 49.1 mg/dL
- ΔAUC-BG0–4 (0–4 h, Day 1, across meals): 105 ± 148 mg·h/dL
- ΔBGmax0–4 (0–4 h, Day 1, across meals): 64.0 ± 43.6 mg/dL
- BGavg0–4 (0–4 h, Day 2, across meals): 148 ± 41.3 mg/dL
- BGmax0–4 (0–4 h, Day 2, across meals): 186 ± 43.2 mg/dL
- ΔAUC-BG0–4 (0–4 h, Day 2, across meals): 120 ± 140 mg·h/dL
- ΔBGmax0–4 (0–4 h, Day 2, across meals): 69.4 ± 36.8 mg/dL
- BGavg0–4 (0–4 h, Day 3, across meals): 156 ± 45.0 mg/dL
- BGmax0–4 (0–4 h, Day 3, across meals): 188 ± 49.8 mg/dL
- ΔAUC-BG0–4 (0–4 h, Day 3, across meals): 156 ± 140 mg·h/dL
- ΔBGmax0–4 (0–4 h, Day 3, across meals): 70.4 ± 42.2 mg/dL
- BGavg0–4 [7]: 148 ± 43.6 mg/dL
- BGmax0–4 [7]: 184 ± 47.4 mg/dL
- ΔAUC-BG0–4 [7]: 126 ± 144 mg·h/dL
- ΔBGmax0–4 [7]: 67.8 ± 40.8 mg/dL
- Intra-subject variability of BGmax (0–4 h, across all study days and meals): 21.1 %CV
- BG1 (Day 1, across meals): 151 ± 56.0 mg/dL
- ΔBG1 (Day 1, across meals): 33.3 ± 38.2 mg/dL
- BG1 (Day 2, across meals): 155 ± 45.8 mg/dL
- ΔBG1 (Day 2, across meals): 35.8 ± 35.4 mg/dL
- BG1 (Day 3, across meals): 156 ± 45.2 mg/dL
- ΔBG1 (Day 3, across meals): 38.2 ± 32.9 mg/dL
- BG1 [8]: 154 ± 49.3 mg/dL
- ΔBG1 [8]: 35.6 ± 35.5 mg/dL
- BG1.5 (Day 1, across meals): 146 ± 52.2 mg/dL
- ΔBG1.5 (Day 1, across meals): 31.0 ± 44.4 mg/dL
- BG1.5 (Day 2, across meals): 155 ± 51.4 mg/dL
- ΔBG1.5 (Day 2, across meals): 35.8 ± 44.4 mg/dL
- BG1.5 (Day 3, across meals): 163 ± 51.3 mg/dL
- ΔBG1.5 (Day 3, across meals): 45.7 ± 41.2 mg/dL
- BG1.5 [8]: 154 ± 51.8 mg/dL
- ΔBG1.5 [8]: 37.2 ± 43.6 mg/dL
- BG2 (Day 1, across meals): 145 ± 54.5 mg/dL
- ΔBG2 (Day 1, across meals): 30.2 ± 48.5 mg/dL
- BG2 (Day 2, across meals): 152 ± 51.9 mg/dL
- ΔBG2 (Day 2, across meals): 33.1 ± 46.1 mg/dL
- BG2 (Day 3, across meals): 165 ± 50.5 mg/dL
- ΔBG2 (Day 3, across meals): 48.0 ± 43.3 mg/dL
- BG2 [8]: 154 ± 52.7 mg/dL
- ΔBG2 [8]: 36.7 ± 46.5 mg/dL
- BG4 (Day 1, across meals): 145 ± 52.1 mg/dL
- ΔBG4 (Day 1, across meals): 29.3 ± 54.1 mg/dL
- BG4 (Day 2, across meals): 147 ± 55.5 mg/dL
- ΔBG4 (Day 2, across meals): 28.0 ± 55.7 mg/dL
- BG4 (Day 3, across meals): 160 ± 60.1 mg/dL
- ΔBG4 (Day 3, across meals): 43.6 ± 54.8 mg/dL
- BG4 [8]: 150 ± 55.9 mg/dL
- ΔBG4 [8]: 33.3 ± 54.9 mg/dL
- BG at 1 h (p = 0.0121 vs SC): 154
- Intra-subject variability of BG (time 1 h, across all study days and meals): 29.1 %CV
- Intra-subject variability of BG (time 1.5 h, across all study days and meals): 31.5 %CV
- Intra-subject variability of ΔBG (time 2 h, across all study days and meals): 90.2 %CV

Reference: paper PMC4529466, “Intradermal insulin infusion achieves faster insulin action than subcutaneous infusion for 3-day wear” (Drug Delivery and Translational Research, 2015)
